Source: patent publication US11299458B2, “Crystalline compounds” (OTSUKA AMERICA PHARMACEUTICAL, INC., priority 2015, dated 2022)
“And” between values parts separate entries of the source, which are not always exact repeats. Equal values may be shown once.

Columns and labels:
dopamine reuptake (DA) = dopamine reuptake (DA) (Homo sapiens, UniProt Q01959); conditions: unbalanced triple reuptake inhibitor; cited from earlier work
[1] = target: serotonin reuptake (5-HT) (Homo sapiens, UniProt P31645); conditions: unbalanced triple reuptake inhibitor; cited from earlier work
[2] = target: norepinephrine reuptake (NE) (Homo sapiens, UniProt P23975); conditions: unbalanced triple reuptake inhibitor; cited from earlier work
[3] = Accelerated stress conditions (relative humidity stress), solid form by XRPD; format: physicochemical; conditions: two weeks
Protocol: Relative Humidity Stress: Solids are stored at approximately 40° C./75% RH condition for a measured time period by placing the solids into a vial inside a sealed temperature/humidity chamber at the controlled condition. Samples are analyzed after removal from the stress environment.
Crystalline Forms A, B, and C are exposed to accelerated stress conditions for two weeks (Table 18 below). […] Crystalline Form C is metastable at this condition.
Experimental: Relative Humidity Stress
The following relative humidity jars (saturated salt solutions are used to generate desired relative humidity) are utilized: 75% RH (NaCl) and 56% RH (NaBr) (Nyqvist, H., Int. J. Pharm. Tech. &Prod. Mfr. 1983, 4 (2), 47-48).

[4] = Solution calorimetry (SolCal), heats of solution in methanol; format: physicochemical; conditions: 25° C.
Protocol: For each test, two heats of solution are obtained—one calculated using a calibration preceding the sample analysis and one calculated using a calibration following the sample analysis. Clear solutions are observed after each test.
Solution calorimetry is performed using a Thermometric 2225 Precision Solution calorimeter, a semi-adiabatic calorimeter. Solution calorimeter System v.1.2 software is used. Samples are weighed into glass crushing ampoules and are sealed using silicone rubber plugs and hot wax. Experiments are carried out in 100 mL of methanol at 25° C. The measurement of the heats of solution of the samples is both preceded and followed by calibrations using an internal heater. The heats of solution are calculated using dynamic of calibration model.

[5] = Approximate solubility by solvent aliquot addition; format: physicochemical; conditions: in both methanol and water, room temperature
Protocol: Solution calorimetry (SolCal) analyses are also performed to determine the heats of solution in methanol at 25° C. and confirm the stable form at this temperature (see Example 15).
Experimental: Approximate Solubility
A weighed sample is treated with aliquots of the test solvent at room temperature. The mixture is sonicated between additions to facilitate dissolution. Complete dissolution of the test material is determined by visual inspection. Solubility is estimated based on the total solvent used to provide complete dissolution. The actual solubility may be greater than the value calculated because of the use of solvent aliquots that are too large or due to a slow rate of dissolution.

[6] = Storage stability of solid form, XRPD after storage; format: physicochemical; conditions: 22 days of ambient storage
Protocol: Six scale-up attempts are conducted to prepare Crystalline Form C by cooling in isopropanol on approximately 50-150 mg scale (Table 11) and the solids tested by XRPD. At refrigerator temperature, precipitated solids yield Form B. Seeding with Form C after cooling in the refrigerator (no solids observed) and before placing in the freezer yield XRPD pattern of Form C with B peaks. Precipitation at freezer temperature results in solids with an XRPD pattern of Form C with A peaks. A solution placed in the freezer after cooling to room temperature with a lower concentration (7 mg/mL compared to 10 mg/mL) yields Form B. By crash cooling (ambient solution placed into dry ice/isopropanol), solids generated are a mixture of Forms B and A. The last attempt on an approximate 50-mg scale generates a mixture of Forms A and C.
An elliptically graded multilayer mirror is used to focus Cu Kα X-rays through the specimen and onto the detector. Prior to the analysis, a silicon specimen (NIST SRM 640e) is analyzed to verify the observed position of the Si 111 peak is consistent with the NIST-certified position. A specimen of the sample is sandwiched between 3-μm-thick films and analyzed in transmission geometry. A beam-stop, short antiscatter extension, and antiscatter knife edge are used to minimize the background generated by air. Soller slits for the incident and diffracted beams are used to minimize broadening from axial divergence. The diffraction pattern is collected using a scanning position-sensitive detector (X'Celerator) located 240 mm from the specimen and Data Collector software v. 2.2b. Data acquisition parameters are: Panalytical X-Pert Pro MPD PW3040 Pro, X-ray Tube: Cu (1.54059 Å), Voltage: 45 kV, Amperage: 40 mA, Scan Range: 1.00-39.99° 2θ, Step Size: 0.017° 2θ, Collection Time: 719 s, Scan Speed: 3.3°/min., Slit: DS: ½°, SS: null, Revolution Time: 1.0 s, Mode: Transmission.

[7] = Binary interconversion (competitive) slurry experiments between Crystalline Forms A, B and C; format: physicochemical; conditions: from interconversion slurries
Protocol: Interconversion experiments are performed to test the hypothetical thermodynamic relationship between materials illustrated by the Energy—Temperature Diagram above. […] The choice of solvent affects the kinetics of polymorph conversion and not the thermodynamic relationship between polymorphic forms (Gu, C. H., Young, V. Jr., Grant, D. J., J. Pharm. Sci. 2001, 90 (11), 1878-1890).
Binary interconversion slurry experiments between Crystalline Forms A, B, and C in different solvent systems at temperatures spanning approximately 2 through 67° C. are summarized in Table 16 below. Saturated solutions are generated and then added to mixtures composed of approximately equivalent quantities of two of the polymorphs. The samples are slurried from overnight to three weeks and the solids harvested and analyzed by XRPD. The results of the interconversion studies indicate that the relative thermodynamic stability of the enantiotropes Crystalline Forms A, B, and C are correctly depicted by the proposed Energy—Temperature Diagram. In addition, Tt,C→B is expected below 2° C.

[8] = Physical stability of mixture of Forms A and B on heat exposure; format: physicochemical; conditions: exposure to 230° C.
Protocol: Tt,B→A is between 37 and 54° C. […] (Table 19 below).

Chain of serotonin reuptake (5-HT) (P31645 whole entry): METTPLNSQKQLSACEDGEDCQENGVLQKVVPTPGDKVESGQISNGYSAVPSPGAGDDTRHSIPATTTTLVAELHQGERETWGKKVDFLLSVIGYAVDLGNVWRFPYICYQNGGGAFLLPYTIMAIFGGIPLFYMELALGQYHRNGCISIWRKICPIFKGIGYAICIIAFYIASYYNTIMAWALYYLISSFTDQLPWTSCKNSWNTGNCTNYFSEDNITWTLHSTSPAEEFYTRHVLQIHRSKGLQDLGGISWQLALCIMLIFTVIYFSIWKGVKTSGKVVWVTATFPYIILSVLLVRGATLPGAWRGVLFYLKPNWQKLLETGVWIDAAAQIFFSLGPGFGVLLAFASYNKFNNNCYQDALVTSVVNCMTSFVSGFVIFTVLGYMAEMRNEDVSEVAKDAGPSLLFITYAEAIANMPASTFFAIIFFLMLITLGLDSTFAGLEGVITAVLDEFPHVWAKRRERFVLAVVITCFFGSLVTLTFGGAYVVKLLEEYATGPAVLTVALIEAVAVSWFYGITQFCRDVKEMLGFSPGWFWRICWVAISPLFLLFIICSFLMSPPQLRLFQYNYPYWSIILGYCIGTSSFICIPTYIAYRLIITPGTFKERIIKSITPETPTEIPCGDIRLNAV
Chain of norepinephrine reuptake (NE) (P23975 whole entry): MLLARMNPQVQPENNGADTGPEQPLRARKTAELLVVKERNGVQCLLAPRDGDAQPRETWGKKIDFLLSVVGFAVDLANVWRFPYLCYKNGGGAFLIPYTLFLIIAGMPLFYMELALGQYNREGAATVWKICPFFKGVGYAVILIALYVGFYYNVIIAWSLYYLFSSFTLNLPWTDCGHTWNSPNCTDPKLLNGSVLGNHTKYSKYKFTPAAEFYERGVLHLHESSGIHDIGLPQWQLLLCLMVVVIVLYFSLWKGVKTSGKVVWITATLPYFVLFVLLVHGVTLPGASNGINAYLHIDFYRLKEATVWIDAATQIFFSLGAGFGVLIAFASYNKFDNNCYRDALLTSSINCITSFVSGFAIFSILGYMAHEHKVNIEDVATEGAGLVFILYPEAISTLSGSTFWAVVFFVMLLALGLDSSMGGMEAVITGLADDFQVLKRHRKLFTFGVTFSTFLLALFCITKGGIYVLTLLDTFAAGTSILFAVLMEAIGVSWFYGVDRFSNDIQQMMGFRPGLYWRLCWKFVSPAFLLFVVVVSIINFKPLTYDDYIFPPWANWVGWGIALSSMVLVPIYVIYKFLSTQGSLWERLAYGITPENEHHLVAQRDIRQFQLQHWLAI
Chain of dopamine reuptake (DA) (Q01959 whole entry): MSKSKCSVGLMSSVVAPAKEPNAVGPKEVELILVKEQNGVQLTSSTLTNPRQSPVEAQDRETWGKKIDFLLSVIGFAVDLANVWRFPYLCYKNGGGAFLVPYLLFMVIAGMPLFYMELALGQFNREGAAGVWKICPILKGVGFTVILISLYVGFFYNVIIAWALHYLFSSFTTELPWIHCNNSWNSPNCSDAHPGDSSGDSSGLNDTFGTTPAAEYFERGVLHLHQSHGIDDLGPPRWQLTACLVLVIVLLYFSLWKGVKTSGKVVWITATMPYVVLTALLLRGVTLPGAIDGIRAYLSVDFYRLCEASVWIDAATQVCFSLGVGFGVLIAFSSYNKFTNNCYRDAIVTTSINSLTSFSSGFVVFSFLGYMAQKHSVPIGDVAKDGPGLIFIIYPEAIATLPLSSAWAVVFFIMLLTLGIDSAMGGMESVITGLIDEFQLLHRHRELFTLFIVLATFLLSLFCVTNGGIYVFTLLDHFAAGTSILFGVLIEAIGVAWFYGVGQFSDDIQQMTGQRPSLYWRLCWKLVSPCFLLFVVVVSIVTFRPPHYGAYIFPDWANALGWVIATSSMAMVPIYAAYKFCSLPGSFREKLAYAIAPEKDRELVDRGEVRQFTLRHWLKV

Question: Which results are given for `c1ccc2cc([C@]34CNC[C@H]3C4)ccc2c1` [(1R,5S)-1-(naphthalen-2-yl)-3-azabicyclo[3.1.0]hexane]?
Answer: potency towards dopamine reuptake (DA) relative to norepinephrine reuptake (dopamine reuptake (DA)): one-sixth as potent; potency towards serotonin reuptake (5-HT) relative to norepinephrine reuptake [1]: one-fourteenth as much; potency towards norepinephrine reuptake (NE) among the three reuptakes [2]: most potent

Question: Which results are given for `Cl.c1ccc2cc([C@]34CNC[C@H]3C4)ccc2c1` [Crystalline Form B, (1R,5S)-1-(naphthalen-2-yl)-3-azabicyclo[3.1.0]hexane hydrochloride]?
Answer: solid form by XRPD after accelerated stress ([3]; 30° C./56% RH): remain unchanged; solid form by XRPD after accelerated stress ([3]; 40° C./75% RH, hydrochloride): remain unchanged; relative thermodynamic stability versus Crystalline Form A from heats of solution [4]: more stable; enthalpy of the transition from Form B to Form A calculated from the SolCal data ([4]; methanol): about 15.9 J/g; average heat of solution ([4]; methanol, triplicate, endothermic, hydrochloride): 64.567 J/g; average heat of solution ([4]; methanol, average of three replicates, hydrochloride): 64.567 J/g; ΔH2 (heat of solution) ([4]; methanol, calculated using the calibration after breaking the sample vial, single replicates, hydrochloride): 64.985 J/g and 65.057 J/g and 65.421 J/g; ΔH1 (heat of solution) ([4]; methanol, calculated using the calibration before breaking the sample vial, single replicates, hydrochloride): 64.004 J/g and 63.471 J/g and 64.461 J/g; ΔHmean (heat of solution) ([4]; methanol, mean of the two calibrations, single replicates, hydrochloride): 64.495 J/g and 64.264 J/g and 64.941 J/g; apparent solubility compared with Crystalline Form A [5]: lower apparent solubility

Question: For `Cl.c1ccc2cc([C@]34CNC[C@H]3C4)ccc2c1` [Crystalline Form C, (1R,5S)-1-(naphthalen-2-yl)-3-azabicyclo[3.1.0]hexane hydrochloride], which “solid form by XRPD after ambient storage” value [6] is on record?
Answer: Its value is “remains unchanged”.

Question: And the “solid form by XRPD after accelerated stress” value ([3]; 40° C./75% RH, hydrochloride)?
Answer: Its value is “converts to a mixture of Crystalline Forms A and B”.

Question: What about the “transition temperature Tt,C→A” value [7] of the same compound?
Answer: The value was “between 2 °C and ambient temperature”.

Question: Which “solid form after heat exposure” value [8] does the source give for `Cl.c1ccc2cc([C@]34CNC[C@H]3C4)ccc2c1` [mixture of Forms A and B, (1R,5S)-1-(naphthalen-2-yl)-3-azabicyclo[3.1.0]hexane hydrochloride] here?
Answer: The value was “completely converts to Form A”.
